25 compounds from US4536346A, “Aralkanamidophenyl compounds” (American Cyanamid Company, priority 1983, dated 1985) can be followed below.

As a reminder, the inhibition is the relative decrease from the control value, in per cent. A lower inhibition goes with a response near the control.

For this experiment, the target named is T1, fatty acyl CoA: cholesterol acyl transferase (ACAT) (Rattus norvegicus, UniProt O70536).
T1 construct: The supernatant, containing the microsomal fraction, served as the source of the cholesterol-esterifying enzyme; from tissue; host or cells: rat adrenals (1,000 x g supernatant containing the microsomal fraction)
T1 sequence (O70536 1-545): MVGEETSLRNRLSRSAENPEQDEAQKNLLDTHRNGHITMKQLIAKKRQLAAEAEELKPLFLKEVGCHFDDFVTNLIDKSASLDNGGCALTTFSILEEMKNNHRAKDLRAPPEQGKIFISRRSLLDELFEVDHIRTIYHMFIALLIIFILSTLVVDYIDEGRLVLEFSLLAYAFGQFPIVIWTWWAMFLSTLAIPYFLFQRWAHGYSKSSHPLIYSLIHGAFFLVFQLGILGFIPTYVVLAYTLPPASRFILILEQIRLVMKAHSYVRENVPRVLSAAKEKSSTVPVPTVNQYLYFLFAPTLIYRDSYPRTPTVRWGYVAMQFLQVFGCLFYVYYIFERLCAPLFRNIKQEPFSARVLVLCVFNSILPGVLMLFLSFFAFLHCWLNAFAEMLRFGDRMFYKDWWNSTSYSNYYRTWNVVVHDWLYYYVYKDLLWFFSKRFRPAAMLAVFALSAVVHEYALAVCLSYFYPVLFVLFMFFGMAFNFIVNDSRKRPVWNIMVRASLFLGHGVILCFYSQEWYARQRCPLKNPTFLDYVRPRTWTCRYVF
Description: Inhibition of enzymatic esterification of cholesterol (ACAT) in rat adrenal supernatant containing the microsomal fraction. It is filed as biochemical. The note with it: final concentration of test compound 5.2 μg./ml., percent inhibition of the ACAT enzyme compared to control values. How it is done:
The compounds of the present invention were tested for their ability to inhibit the enzymatic esterification of cholesterol according to the following procedure:
Rat adrenals were homogenized in 0.2M monobasic potassium phosphate buffer, pH 7.4, and centrifuged at 1,000 times gravity for 15 minutes at 5° C. The supernatant, containing the microsomal fraction, served as the source of the cholesterol-esterifying enzyme, fatty acyl CoA: cholesterol acyl transferase (ACAT). A mixture comprising 50 parts of adrenal supernatant, 10 parts of albumin (BSA) (50 mg./ml.), […], 3 parts of test compound, and 500 parts of buffer was pre-incubated at 37° C. for 10 minutes. After treatment with 20 parts of oleoyl CoA (^14 C-0.4 μCi), the mixture was incubated at 37° C. for 10 minutes. A control mixture, omitting the test compound, was prepared and treated in the same manner. The lipids from the incubation mixture were extracted into an organic solvent and separated by thin-layer chromatography. The cholesterol ester fraction was counted in a scintillation counter. This procedure is a modification of that described by Hashimoto, et al., Life Scie., 12 (Part II), 1-12 (1973).
The results of this test on representative compounds of this invention appear in Table I. The final concentration of the test compound was 5.2 μg./ml., and the effectiveness of the compound is expressed as percent inhibition of the ACAT enzyme compared to control values.
The compound `COc1ccc(C(CC(=O)Nc2ccc(C(F)(F)F)cc2)c2ccc(OC)cc2)cc1` [N--(p-Trifluoromethylphenyl)-3,3-bis(4-methoxyphenyl)propionamide] had an inhibition at 5.2 µg/mL of 92%. The compound `CCOC(=O)c1ccc(NC(=O)CC(c2ccc(C)cc2)c2ccc(C)cc2)cc1` [Ethyl 4'-[3,3-bis(4-methylphenyl)propionamido]benzoate] displayed an inhibition at 5.2 µg/mL of 95%. As to `N#Cc1ccc(NC(=O)CC(c2ccc(Cl)cc2)c2ccc(Cl)cc2)cc1` [N--(4-Cyanophenyl)-3,3-bis(p-chlorophenyl)propionamide], testing at 5.2 µg/mL gave an inhibition of 96%.

In turn, `Cc1ccc(C(CC(=O)Nc2ccc(F)cc2)c2ccc(C)cc2)cc1` [N--(p-Fluorophenyl)-3,3-bis(p-tolyl)propionamide] registered an inhibition at 5.2 µg/mL of 92%. Next, `CCOC(=O)c1ccc(NC(=O)CC(c2ccc(Cl)cc2)c2ccc(Cl)cc2)cc1` [4-[3,3-Bis(p-chlorophenyl)propionamido]benzoic acid, ethyl ester]: 94%; `CCOC(=O)c1ccc(NC(=O)C=C(C)c2ccc(Cl)cc2)cc1` [4-(p-Chloro-β-methylcinnamamido)benzoic acid, ethyl ester]: 74%. Next, `O=C(CC(c1ccc(Cl)cc1)c1ccc(Cl)cc1)Nc1ccc(C(=O)O)cc1` [4-[3,3-Bis(p-chlorophenyl)propionamido]benzoic acid]: 71%; `O=C(CCc1ccc(Cl)cc1)Nc1ccc(C(=O)O)cc1` [4-(p-Chlorohydrocinnamamido)benzoic acid]: 33%; `Cc1ccc(NC(=O)CC(c2ccc(Cl)cc2)c2ccc(Cl)cc2)cc1` [N--(4-Tolyl)-3,3-bis(p-chlorophenyl)propionamide]: 36%. In turn, `O=C(C=C(c1ccc(Cl)cc1)c1ccc(Cl)cc1)Nc1ccc(C(=O)O)cc1` [4-[3,3-Bis(p-chlorophenyl)acrylamido]benzoic acid] displayed an inhibition at 5.2 µg/mL of 91%.

Take `O=C(C=C(c1ccccc1)c1ccc(Cl)cc1)Nc1ccc(C(=O)O)cc1` [4-(p-Chloro-β-phenylcinnamamido)benzoic acid]: testing at 5.2 µg/mL gave an inhibition of 77%. The figure for `Cc1ccc(NC(=O)CC(c2ccc(C)cc2)c2ccc(C)cc2)cc1` [N--(p-Tolyl)-3,3-bis(p-tolyl)propionamide] is 66%; for `CCOC(=O)c1ccc(NC(=O)C=C(c2ccc(Br)cc2)c2ccc(Br)cc2)cc1` [4-[3,3-Bis(p-bromophenyl)acrylamido]benzoic acid, ethyl ester] it is 96%; for `O=C(C=Cc1ccc(Cl)cc1)Nc1ccc(C(=O)O)cc1` [4-(p-chlorocinnamamido)benzoic acid, 4-(p-Chlorocinnamamido)benzoic acid] it is 41%.

For the compound `CCOC(=O)c1ccc(NC(=O)C=C(c2ccccc2)c2ccc(Cl)cc2)cc1` [4-(p-Chloro-β-phenylcinnamamido)benzoic acid, ethyl ester], the inhibition at 5.2 µg/mL was found to be 92%. Next, `COc1ccc(C(CC(=O)Nc2ccc([N+](=O)[O-])cc2)c2ccc(OC)cc2)cc1` [N--(p-Nitrophenyl)-3,3-bis(4-methoxyphenyl)propionamide]: 94%; `CCOC(=O)c1ccc(NC(=O)C=C(c2ccc(Cl)cc2)c2ccc(Cl)cc2)cc1` [4-[3,3-Bis(p-chlorophenyl)acrylamido]benzoic acid, ethyl ester]: 93%; `COc1ccc(C(CC(=O)Nc2ccc(C(C)=O)cc2)c2ccc(OC)cc2)cc1` [4'-[3,3-Bis(4-methoxyphenyl)propionamido]acetophenone]: 82%.

Regarding `CCOC(=O)c1ccc(NC(=O)CCc2ccc(Cl)cc2)cc1` [4-(p-Chlorohydrocinnamamido)benzoic acid, ethyl ester], 5.2 µg/mL produced 30% inhibition. The figure for `CCOC(=O)c1ccc(NC(=O)C=C(c2ccc(C)cc2)c2ccc(C)cc2)cc1` [4-[3,3-Di-(p-tolyl)acrylamido]benzoic acid, ethyl ester] is 97%; for `O=C(CC(c1ccc(Cl)cc1)c1ccc(Cl)cc1)Nc1ccc(C(F)(F)F)cc1` [N--(4-Trifluoromethylphenyl)-3,3-bis(p-chlorophenyl)propionamide] it is 35%. The figure for `O=C(C=C(c1ccccc1)c1ccccc1)Nc1ccc(C(=O)O)cc1` [4-(3,3-Diphenylacrylamido)benzoic acid] is 66%; for `CCOC(=O)c1ccc(NC(=O)CC(c2ccc(OC)cc2)c2ccc(OC)cc2)cc1` [Ethyl 4'-[3,3-bis(4-methoxyphenyl)propionamido]benzoate] it is 91%; for `COc1ccc(C(CC(=O)Nc2ccc(C#N)cc2)c2ccc(OC)cc2)cc1` [N--(p-Cyanophenyl)-3,3-bis(4-methoxyphenyl)propionamide] it is 94%. The figure for `CCOC(=O)c1ccc(NC(=O)CCc2ccc(OC)cc2)cc1` [4-(p-Methoxyhydrocinnamamido)benzoic acid, ethyl ester] is 28%.
